Values of other authors as cited in patent US20260199305A1, “LONG-ACTING ORAL PHARMACEUTICAL COMPRISING HYPOXIA-INDUCIBLE FACTOR PROLYL HYDROLASE INHIBITOR AND USE THEREOF” (Kind Pharmaceutical, priority 2023, published 2026).
Where two headings read alike, the source gives them in different places.

Details: cited from earlier work

SMILES | t½ (literature value) [h] | further results
O=C(O)CNC(=O)C1C(=O)N(C2CCCCC2)C(=O)N(C2CCCCC2)C1=O [Daprodustat] |  | t½ (in patients with chronic kidney disease anemia, literature): ~ 7 hours
O=C(O)CNC(=O)c1c(O)c2ccccc2n(OCC2CC2)c1=O [Desidustat] | 6 to 15 | 
O=C(O)CNC(=O)c1c(O)cc(CCc2ccccc2)n2ncnc12 [Enarodustat] | 8.2 to 8.7 | 
O=c1c(-n2ccnn2)c[nH]n1-c1cc(N2CCOCC2)ncn1 [Molidustat] | 4 to 10 | 
Cc1nc(C(=O)NCC(=O)O)c(O)c2ccc(Oc3ccccc3)cc12 [Roxadustat] | 12 to 15 | 
Cn1c(=O)cc(N2CCC[C@@H](N)C2)n(Cc2cc(F)ccc2C#N)c1=O [Trelagliptin] |  | elimination half-life (t½) (literature value (J Diabetes Investig 2018)): 38.44 to 54.26 h
O=C(O)CNC(=O)c1ncc(-c2cccc(Cl)c2)cc1O [Vadadustat] | 4.7 to 9.1 | 
